Source: patent US20210361563A1, “TRANSDERMAL SYSTEM FOR SYNERGISTIC IMMUNE-CHEMOTHERAPY USING MICRONEEDLES AND METHOD OF TREATMENT THEREOF” (THE UNIVERSITY OF HONG KONG, priority 2020, published 2021)

Experiments:
[1] = tested on: SCC VII-luc tumor homograft; experiment: Ki-67 IHC cell proliferation in tumor tissue sections; assay type: in vivo, C3H/HeJ mice
Method: Cell proliferation was further confirmed through IHC in formalin-fixed paraffin-embedded tumor tissue sections. […] Tumor infiltrating lymphocytes (TILs) like CD4+ cells and CD8+ infiltrated the tumor tissue and started to proliferate after aPD-1 treatment. […] TILs attacked the tumor tissues and killed the tumor cells afterwards. Whether these proliferated cells were T-cells or tumor cells were further confirmed through flow cytometry. Additionally, tumor cell apoptosis was assessed through in situ TUNEL assay (FIG. 4B & 4D). […] In sum, aPD-1-CDDP-NPs MN can not only increase the amount of activated T-cells but also kill tumor cells.
(§1) Male and female C3H/HeJ mice were purchased from The Jackson Laboratory (Bar Harbor, Me., USA) and bred in the Laboratory Animal Unit in the University of Hong Kong. All animal procedures were performed in accordance with a protocol approved by the Committee on the Used of Live Animals in Teaching and Research (CULATR, HKU). […] The tumor size was monitored by both the bioluminescence signals and the Vernier calipers every 3 days. Tumor volume was calculated as 0.5× long diameter×short diameter^2. Tumor volume and tumor wet weight were also measured after sacrifice. Tumor proliferation was determined in sliced tumor tissues using anti-Ki67 (Abcam, USA) following the IHC protocol.

[2] = H&E staining of liver, lung, kidney and spleen; assay type: in vivo, C3H/HeJ mice
Text: Liver, lung, kidney and spleen of each group were collected after sacrifice for hematoxylin and eosin (H&E) staining to analyze whether drugs induced toxicity to these organs (FIG. 6C).
The livers, kidneys, spleens and lungs were collected after sacrifice and fixed in 4% PFA. After embedding into paraffin, the tissues were sliced into 5-μm sections for H&E staining. Images of the tissues were collected using a polarized light microscope (ECLIPSE LV100POL, Japan). The BUN and total IgG level in the serum were detected using a urea nitrogen detection kit (Thermo Fisher Scientific, USA) and a mouse IgG total ELISA kit (ThermoFisher Scientific, USA) respectively.

[3] = tested on: cell lines; experiment: Cell apoptosis (APO-BrdU TUNEL) and cell cycle (PI) by flow cytometry; assay type: cell-based; conditions: Pt 100 μM, 4 h
Method: A large number of 3hydroxyl ends appeared when DNA strands became fragmented, and they were labeled with BrdUTP and terminal deoxynucleotidyl transferase (TdT) using the TUNEL technique. After DNA incorporation, BrdU could be detected through anti-BrdU antibody.
Cell apoptosis was detected using flow cytometry with the APO-BrdU™ tranferase dUTP nick end laveling (TUNEL) Assay Kit (Thermo Fisher Scientific, USA), and the phase of the cell cycle was determined using propidium iodide (PI, Thermo Fisher Scientific, USA) following the manufacturer's protocol. Cells were fixed with 1% paraformaldehyde (PFA) or ethanol before staining, and they were analyzed through flow cytometry (BD FACSVerse™, BD, Franklin Lake, N.J., USA) immediately after staining. All data were analyzed using FlowJo (7.6.1, BD, USA).

[4] = tested on: IFN-γ, TNF-α; experiment: Serum IFN-γ and TNF-α ELISA; assay type: in vivo, C3H/HeJ mice
Method: (§2) To evaluate T-cell responses and the immune profile, tumor tissues and blood were harvested after sacrifice. aPD-1, being an ICB, could be a positive regulator of TILs. The infiltration of CD4+ T-cells and CD8+ T-cells into tumor cells was assessed through flow cytometry. […] To reveal the cellular mechanism in vivo, the production of IFN-γ and TNF-α was determined using ELISA kit in mice serum. […] (FIG. 5E)
Blood was collected from mice and maintained in anticoagulative tubes ([…]® Blood Collection Tubes, K3E K3EDTA, Greiner Bio-One International, Australia). Blood was centrifuged at 1500 g for 10 minutes at 4° C., then plasma was transferred into a new Eppendorf. After centrifugation at 2000 g for 15 mins at 4° C., the supernatant was collected to obtain the serum of mice. IFN-γ and TNF-α in the serum were detected using Mouse IFN-γ ELISA kit (Thermo Fisher Scientific, USA) and Mouse TNF-α ELISA kit (Thermo Fisher Scientific, USA), respectively.

[5] = tested on: CD4+ and CD8+ T-cells in tumor; experiment: T-cell infiltration in tumor tissues by flow cytometry; assay type: in vivo, C3H/HeJ mice; conditions: tumor tissue after sacrifice
Method: as §2
A piece of tumor was collected from each mouse for flow cytometry. After execution, the tissues were rinsed with PBS and maintained in PBS at 4° C. The tumor tissues were sliced into very small pieces and sieved through 100 μm cell strainer (BD Falcon, USA). Subsequently, the sliced tissue was pressed using the plunger end of a syringe. The supernatant was decanted and the pellet resuspended the pellet in Flow Cytometry Staining Buffer (PBS plus 10% FBS). The solution was separated into two Eppendorf tubes with a volume of 300 μL, then 1 μL primary antibody was added into one of the two tubes individually. The three primary antibodies used were rabbit anti-CD4 (Abcam, Cambridge, Mass., USA), rat anti-CD8 (Abcam, USA), and mouse anti-foxp3 (Abcam,USA). […]

[6] = tested on: SCC VII-luc tumor homograft; experiment: Antitumor efficiency in immunocompetent murine tumor homograft model; assay type: in vivo, C3H/HeJ mice
Text: We further investigated tumor inhibition on an immunocompetent murine tumor homograft model. SCC VII cell lines were subcutaneously inoculated into the right flank of C3H/HeJ mice to obtain a superficial tumor. […] Tumor volume was monitored using a Vernier caliper before the treatment and 3 days after each treatment. Furthermore, tumor growth was double confirmed using bioluminescent images (FIG. 3A). […] The ineffective therapeutic role of aPD-1, however, may be due to the following reasons. First, the renovated T cells may be too exhausted that they display impaired effector function with limited proliferative potential ^26. Second, cancer antigens may be “masked”; therefore, they cannot be identified by T-cells ^27. Third, the tumor microenvironment may contain multiple inhibitory immune cells, such as tumor-associated macrophages, which overwhelm the T-cells into have adverse effects ^28. Although the exact reason was unclear, the animal model in this study was unresponsive to systemic aPD-1 immunotherapy.
as §1, with “HKU). An immunocompetent murine tumor homograft model was established by injecting 1×10^6 SCC VII-luc cells suspended in 100 μL Hanks' balanced salt solution (HBSS, Gibco, USA) on the right flank of the mouse. […] The treatments were administered once the tumor volume reached 10 mm^3 and each treatment was administered every 3 days and lasted for 3 cycles.” for “HKU).”

N.N.[Cl][Pt][Cl] [CDDP, cis-Diammineplatinum(II)dichloride]
cells continuing to proliferate (Ki-67) [1]: 25% | kidney histology (H&E) ([2]; kidney): severe toxic tubular necrosis | liver histology (H&E) ([2]; liver): some alterations were found in the liver parenchyma | lung histology (H&E) ([2]; lung): diffuse damage of the pulmonary alveoli and severe inflammatory infiltration | spleen histology (H&E) ([2]; spleen): white pulp was evidently reduced | cell apoptosis [3]: 2.79% | IFN-γ level in serum [4]: lower IFN-γ levels than other five groups | CD8+ T-cells among tumor cells [5]: 4.478% | antitumor effect (in words) ([6]; SCC VII homograft, three treatments): limited treatment efficacy | tumor volume compared to control group (in words) ([6]; mouse, in vivo): no difference | tumor weight compared to control group (in words) ([6]; mouse, in vivo): significantly reduced
